From patent US10973861B2, “Compositions and methods” (priority 2013, dated 2021) come the findings set out here.

The subject of this experiment is C. difficile. The experiment in a line: Mouse model of C. difficile infection, bacterial compositions given by oral gavage on day −1 (Example 1). It counts as in vivo, mice. As to conditions: positive control, oral gavage on days −1 to 4.

`CN[C@H](CC(C)C)C(=O)N[C@H]1C(=O)N[C@@H](CC(N)=O)C(=O)N[C@H]2C(=O)N[C@H]3C(=O)N[C@H](C(=O)N[C@H](C(=O)O)c4cc(O)cc(O)c4-c4cc3ccc4O)[C@H](O)c3ccc(c(Cl)c3)Oc3cc2cc(c3O[C@@H]2O[C@H](CO)[C@@H](O)[C@H](O)[C@H]2O[C@H]2C[C@](C)(N)[C@H](O)[C@H](C)O2)Oc2ccc(cc2Cl)[C@H]1O` [Vancomycin]: the “weight loss, clinical signs of disease, and C. difficile shedding (in words)” value is “protects against these outcomes”.
